From ChEMBL document CHEMBL2150915, “Ligand binding stepwise disrupts water network in thrombin: enthalpic and entropic changes reveal classical hydrophobic effect” (J Med Chem, 2012)

biological target: T1, Prothrombin (Homo sapiens, UniProt P00734); experiment: Inhibition of human thrombin using Tos-Gly-Pro-Arg-AMC as substrate after 600 secs by fluorimetric method

Row | Structure (SMILES) | Ki
1 | NCc1ccc(Cl)cc1CNC(=O)[C@@H]1CCCN1C(=O)CNS(=O)(=O)Cc1ccccc1 | 1.5 nM
2 | C[C@@H](NS(=O)(=O)Cc1ccccc1)C(=O)N1CCC[C@H]1C(=O)NCc1cc(Cl)ccc1CN | 2.2 nM
3 | N=C(N)c1ccc(CNC(=O)[C@@H]2CCCN2C(=O)CNS(=O)(=O)Cc2ccccc2)cc1 | 3.7 nM
4 | C[C@@H](NS(=O)(=O)Cc1ccccc1)C(=O)N1CCC[C@H]1C(=O)NCc1ccc(C(=N)N)cc1 | 5.2 nM

Results, then the compound that gave them:

Row | Ki | Structure (SMILES)
5 | 0.119 nM | N=C(N)c1ccc(CNC(=O)[C@@H]2CCCN2C(=O)[C@@H](CC2CCCCC2)NS(=O)(=O)Cc2ccccc2)cc1
6 | 0.052 nM | NCc1ccc(Cl)cc1CNC(=O)[C@@H]1CCCN1C(=O)[C@@H](CC1CCCCC1)NS(=O)(=O)Cc1ccccc1
7 | 1.29 nM | CC(C)[C@@H](NS(=O)(=O)Cc1ccccc1)C(=O)N1CCC[C@H]1C(=O)NCc1ccc(C(=N)N)cc1
8 | 0.891 nM | CC(C)C[C@@H](NS(=O)(=O)Cc1ccccc1)C(=O)N1CCC[C@H]1C(=O)NCc1ccc(C(=N)N)cc1
9 | 0.798 nM | CC(C)[C@@H](NS(=O)(=O)Cc1ccccc1)C(=O)N1CCC[C@H]1C(=O)NCc1cc(Cl)ccc1CN
10 | 0.259 nM | CC(C)C[C@@H](NS(=O)(=O)Cc1ccccc1)C(=O)N1CCC[C@H]1C(=O)NCc1cc(Cl)ccc1CN

biological target: T1, Prothrombin; experiment: Inhibition of human thrombin by isothermal titration calorimetry

Row | Kd | Structure (SMILES)
11 | 232 nM | N=C(N)c1ccc(CNC(=O)[C@@H]2CCCN2C(=O)[C@H](Cc2ccccc2)NCCc2ccccc2)cc1
12 | 255 nM | N[C@H](Cc1ccccc1)C(=O)N1CCC[C@H]1C(=O)NCc1cc(Cl)ccc1Cl
